Laboratory results: article PMC7697888, “Comprehensive Set of Tertiary Complex Structures and Palmitic Acid Binding Provide Molecular Insights into Ligand Design for RXR Isoforms” (International Journal of Molecular Sciences, 2020)
One block for each molecule: values may come before it. No end group written: not given here. *: point of attachment. Biotin = O=C1N[C@H]2[C@H](CS[C@H]2CCCCC(=O)*)N1

Assays:
[1] = tested on: all RXR subtypes; set-up: method as in PMID 9205071, PMID 26030625, PMID 27151148; conditions: read-out: EC50 activating all RXR subtypes; cited from earlier work
[2] = tested on: RXR; test: Gal4 hybrid reporter gene assays, competition with bexarotene / antagonist UVI3003 (isoform not specified); format: cell-based, human; conditions: UVI3003 at 1 µM; MA, PA and SA at 200 µM
Procedure: The Gal4 hybrid reporter gene assays for RXRα, RXRβ and RXRγ were performed as described previously using the Gal4-fusion receptor plasmids pFA-CMV-hRXRα-LBD (NR2B1, UniProt entry: P19793, aa 225–462), pFA-CMV-hRXRβ-LBD (NR2B2, UniProt entry: P28702-1, aa 294–533) and pFA-CMV-hRXRγ-LBD (NR2B3, UniProt entry: P48443-1, aa 229–463), which code for the hinge region and LBD of the canonical RXR isoform. pFR-Luc (Stratagene, San Diego, CA, USA) as the reporter plasmid and pRL-SV40 (Promega, Madison, WI, USA) as the internal control were used. HEK293T cells were grown in DMEM high-glucose medium (supplemented with 10% fetal calf serum (FCS), sodium pyruvate (1 mM), penicillin (100 U/mL) and streptomycin (100 μg/mL)) at 37 °C and 5% CO2, and seeded in 96-well plates (3.0 × 10^4 cells/well) on the day before transfection. Right before transfection, medium was changed to Opti-MEM without supplements and cells were transiently transfected using the Lipofectamine LTX reagent (Invitrogen, Carlsbad, CA, USA) according to the manufacturer’s protocol with pFR-Luc (Stratagene), pRL-SV40 (Promega) and the respective pFA-CMV-hRXR-LBD clone. After 5 h of incubation, medium was changed to Opti-MEM (supplemented with penicillin (100 U/mL) and streptomycin (100 μg/mL)) additionally containing 0.1% DMSO and the respective test compounds or 0.1% DMSO alone as the untreated control. After overnight incubation (12–14 h), cells were assayed for luciferase activity using the Dual-Glo luciferase assay system (Promega) according to the manufacturer’s protocol on a Tecan Spark M10 luminometer (Tecan Deutschland GmbH, Crailsheim, Germany). Each sample was tested in at least three biologically independent repeats in duplicates. Data were normalized for transfection efficiency and cell growth by division of firefly luciferase data by Renilla luciferase data and multiplying by 1000 to obtain relative light units (RLUs). Fold activation denotes the mean RLU of test compounds at a respective concentration divided by the mean RLU of untreated control. […]

[3] = tested on: RXRα; set-up: method as in PMID 15073272; conditions: cited from earlier work
[4] = target: T1, RXRα ligand-binding domain (NR2B1, aa 223–462) (human, UniProt P19793 223-462); test: crystal structure; sitting drop vapor diffusion at 20 °C; RXR LBD (10–13 mg/mL) with GRIP-1 peptide and palmitic acid (carried over from E. coli for RXRα, exogenously added for RXRβ and RXRγ); conditions: both partners purified
T1 construct: Cloned in pNIC28-Bsa4; Palmitic acid carried over from E. coli sat in the ligand pocket in the crystal; also called RXRα LBD; retinoid X receptor α; not shown: histidine tag, N-terminal, cleaved
T1 sequence (looked up): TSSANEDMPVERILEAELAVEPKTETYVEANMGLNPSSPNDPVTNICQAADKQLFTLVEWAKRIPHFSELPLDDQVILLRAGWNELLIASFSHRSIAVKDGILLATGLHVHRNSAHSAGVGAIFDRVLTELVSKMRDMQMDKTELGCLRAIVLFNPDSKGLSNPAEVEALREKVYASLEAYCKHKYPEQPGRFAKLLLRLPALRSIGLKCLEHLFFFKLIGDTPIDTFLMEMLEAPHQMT

[5] = target: T2, RXRβ ligand-binding domain (NR2B2, aa 298–533) (human, UniProt P28702 298-533); test: as above; conditions: both partners purified
T2 construct: Cloned in pNIC28-Bsa4; Crystallised with exogenously added palmitic acid; also called RXRβ LBD; not shown: histidine tag, N-terminal, cleaved
T2 sequence (looked up): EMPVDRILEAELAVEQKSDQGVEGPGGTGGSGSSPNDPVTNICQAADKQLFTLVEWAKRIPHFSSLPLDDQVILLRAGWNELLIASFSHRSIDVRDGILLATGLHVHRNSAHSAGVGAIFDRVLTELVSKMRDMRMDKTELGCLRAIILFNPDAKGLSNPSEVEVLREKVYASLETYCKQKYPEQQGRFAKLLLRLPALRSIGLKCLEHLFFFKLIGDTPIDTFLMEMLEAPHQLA

[6] = target: T3, RXRγ ligand-binding domain (NR2B3, aa 233–463) (human, UniProt P48443 233-463); test: as above; conditions: both partners purified
T3 construct: Cloned in pNIC28-Bsa4; Crystallised with exogenously added palmitic acid; also called RXRγ LBD; not shown: histidine tag, N-terminal, cleaved
T3 sequence (looked up): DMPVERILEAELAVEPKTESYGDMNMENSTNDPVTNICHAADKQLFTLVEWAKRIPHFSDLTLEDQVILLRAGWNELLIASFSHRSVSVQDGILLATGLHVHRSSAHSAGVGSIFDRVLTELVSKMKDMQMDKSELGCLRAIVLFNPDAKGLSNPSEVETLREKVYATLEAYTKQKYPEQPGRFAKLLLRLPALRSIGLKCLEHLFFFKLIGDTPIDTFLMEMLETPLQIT

[7] = target: T4, sGFP-RXRα LBD (aa 225–462) (human, UniProt P19793 225-462); test: AlphaScreen or HTRF; 12 nM sGFP-RXRα LBD (acceptor), 12 nM biotin-SRC-1 peptide on terbium cryptate-streptavidin (donor); 25 mM HEPES pH 7.5, 150 mM KF, 5% glycerol, 0.1% CHAPS, 5 mM DTT, 1% DMSO; 2 h at room temperature; with myristic, palmitic or stearic acid at varying concentrations, with or without 0.3 µM bexarotene; SR11237 as positive control; conditions: both partners purified
T4 construct: also called recombinant RXRα LBD fused to N-terminal superfolder green fluorescent protein; source: recombinant; not shown: superfolder green fluorescent protein (sGFP), N-terminal, kept
T4 sequence (looked up): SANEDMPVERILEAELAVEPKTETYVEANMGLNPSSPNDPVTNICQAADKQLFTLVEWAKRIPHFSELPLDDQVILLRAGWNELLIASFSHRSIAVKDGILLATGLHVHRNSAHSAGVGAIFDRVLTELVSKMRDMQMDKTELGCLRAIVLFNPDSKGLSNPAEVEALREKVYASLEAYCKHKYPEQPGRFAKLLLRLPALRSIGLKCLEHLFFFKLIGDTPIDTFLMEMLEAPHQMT

Molecule: CC1=C(/C=C/C(C)=C\C=C\C(C)CC(=O)O)C(C)(C)CCC1 (stereo not drawn) [9-cis-13,14-dihydroretinoic acid]
EC50 [1]: ~0.1 µM

Molecule: CC1=C(/C=C/C(C)=C\C=C\C(C)=C\C(=O)O)C(C)(C)CCC1 [9-cis-retinoic acid]
EC50 [1]: ~0.1 µM

Molecule: CCCCCOc1cc2c(cc1-c1cc(/C=C/C(=O)O)ccc1O)C(C)(C)CCC2(C)C [UVI3003, reference compound]
reversal of RXR agonistic effect of MA, PA and SA [2]: fully reversed

Molecule: CCCCC/C=C\C/C=C\C/C=C\C/C=C\CCCC(=O)O [arachidonic acid]
EC50 [3]: ~10 µM

Molecule: CC/C=C\C/C=C\C/C=C\C/C=C\C/C=C\C/C=C\CCC(=O)O [docosahexaenoic acid]
EC50 [3]: ~10 µM

binding result [4]: binds
binding result [5]: binds
binding result [6]: binds
B1: glucocorticoid receptor interacting protein 1 (GRIP-1) co-regulator peptide (peptide)
peptide: KHKILHRLLQDSSY
notes: NCOA2/TIF2) with an LxxLL box; last printed residue of the peptide; also called GRIP-1 peptide

binding result [7]: binds
B2: SRC-1-derived peptide (steroid receptor co-activator 1) (peptide)
peptide: Biotin-CPSSHSSLTERHKILHRLLQEGSPS
notes: NCOA1), contains the consensus motif LxxLL; Coupled through its biotin to terbium cryptate-streptavidin conjugate (FRET donor); source: bought: Eurogentec Deutschland GmbH; not shown: biotin, N-terminal, kept
